Experiments:
[1] = target: T1, THRβ LBD (His-GST-dLBT-THRβLBD) (Homo sapiens, UniProt P10828); experiment: THR-FRET (time-resolved fluorescence resonance energy transfer) agonist activity assay, THRβ; type: biochemical; settings: for EC50: 24 h at room temperature; for Selectivity (THRα/THRβ): ratio of EC50 THRα/THRβ
T1 construct: made in house; host or cells: E. coli BL21 (DE3)
T1 sequence (P10828 217-461 limits assumed): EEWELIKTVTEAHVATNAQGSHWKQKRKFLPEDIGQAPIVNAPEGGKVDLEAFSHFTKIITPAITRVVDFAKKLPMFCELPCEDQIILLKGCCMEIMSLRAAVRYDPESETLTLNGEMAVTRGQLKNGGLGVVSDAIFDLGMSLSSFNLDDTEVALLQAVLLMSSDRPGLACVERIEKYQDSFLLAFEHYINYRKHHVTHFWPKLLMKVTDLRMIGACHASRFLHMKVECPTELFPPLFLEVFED
Excerpt: (§1) Experimental Example 1: Detection of Agonist Activities of Compounds Against THRα/β Based on Time-Resolved Fluorescence Resonance Energy Transfer (THR-FRET)
(§2) 1. Construction of THRα/β Overexpression Vectors
(§3) By visiting NCBI, the THRα/β LBD domain sequences were found. The pET21-His-GST-dLBT-THRα LBD and pET21-His-GST-dLBT-THRβLBD overexpression vectors were constructed by the fusion method, and sequenced to confirm the accuracy of the sequences.
(§4) 2. Prokaryotic Expression of Recombinant Proteins in E. coli
(§5) The THRα LBD and THRβLBD overexpression vectors confirmed by sequencing were transfected into E. coli cells BL21 (DE3), and spread on an ampicillin-resistant agar plate. Monoclones were picked out and amplified in an LB medium, and transferred into 1 L LB at a ratio of 1:100 for large-scale culture. When the OD value was at 0.8 to 1.2, 0.5 mM isopropyl-beta-D-thiogalactopyranoside (IPTG) was added, and induced overnight at 18° C. The bacteria were harvested, disrupted, and purified via the GST column and the molecular sieve to obtain two proteins His-GST-dLBT-THRα LBD and His-GST-dLBT-THRβLBD.
(§6) 3. Preparation of Compounds and Formulation of Reaction System
(§7) The proteins were taken out from a refrigerator at −80° C. The protein s with the GST-tagged THRα/p LBD domain and the Eu-labelled GST antibodies were thawed slowly on ice, and an assay buffer containing a final concentration of 5 mM dithiothreitol (DTT) was formulated.
(§8) 3.1 Preparation of Compounds
(§9) The starting concentration of the compound was 10 μM (in DMSO). The compound (100 μM in DMSO) was subjected to 3-fold isogradient dilution with DMSO to obtain a total of 11 isogradient concentrations. Subsequently, the above compounds at the isogradient concentration were further subjected to 50-fold dilution with an assay buffer containing 5 mM DTT.
(§10) 3.2 Formulation of THR-FRET Reaction System
(§11) The final concentrations of all components were calculated based on a system with a final volume of 20 µL per well. To […] of assay buffer containing 5 mM DTT, the GST-tagged THRα/β proteins, the SRC2 ([…]) polypeptide, XL665 (Cisobio, #610SAXLB), and the Eu-labeled GST antibody were added, and the final concentrations were 2 nM, 200 nM, 0.05 nM, and 7.6 nM respectively to formulate 18 μL of reaction mixture of the proteins, polypeptide, and antibody per well.
(§12) 18 μL of reaction mixture and 2 μL of diluted compound were added into an optiplate-384-well plate, and reacted at room temperature for 24 h.
(§13) The plate was read using an MD i3x multi-mode microplate reader with the excitation and emission wavelengths of 340 nm and 665 nm, respectively. The intensity of light at a wavelength of 616 nm generated by europium excited by 340 nm wavelength light from the MD i3x multi-mode microplate reader was used as the background. According to the different activation degrees of different compounds against THRα and THRβ, the intensity of the emission light at a wavelength of 665 nm generated by exciting XL665 with the exciting light at a wavelength of 616 nm was varied. The intensity ratio between these two light wavelengths (665 nm, 616 nm) was used as the activation activity of the compound against THRα or THRβ, and was normalized against the ratio in the vehicle DMSO group. The dose-response curve was fitted with four parameters using the GraphPad Prism 6.0 software, and the EC50 value was calculated.

[2] = target: T2, THRα LBD (His-GST-dLBT-THRα LBD) (Homo sapiens, UniProt P10827); experiment: THR-FRET (time-resolved fluorescence resonance energy transfer) agonist activity assay, THRα; type: biochemical; settings: 24 h at room temperature
T2 construct: made in house; host or cells: E. coli BL21 (DE3)
T2 sequence (P10827 163-407 isoform P10827-2): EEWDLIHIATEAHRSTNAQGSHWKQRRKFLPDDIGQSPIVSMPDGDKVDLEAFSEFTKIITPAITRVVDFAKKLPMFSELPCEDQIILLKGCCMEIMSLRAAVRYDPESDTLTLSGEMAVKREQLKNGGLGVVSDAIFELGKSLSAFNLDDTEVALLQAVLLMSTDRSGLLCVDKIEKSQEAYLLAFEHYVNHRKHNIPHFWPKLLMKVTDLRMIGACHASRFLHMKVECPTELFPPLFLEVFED
Excerpt: as §1, §2, §3, §4, §5, §6, §7, §8, §9, §10, §11, §12, §13

THRβ (pGAL4-THRβ-LBD) = target: T3, THRβ (pGAL4-THRβ-LBD) (Homo sapiens, UniProt P10828); experiment: Reporter gene (Dual-Glo luciferase) agonist activity assay in HEK293T cells, THRβ; type: cell-based; settings: ratio of EC50 THRα/THRβ
T3 construct: expressed in transfected cells; host or cells: HEK293T
T3 sequence (P10828 217-461): T1 sequence (P10828 217-461 limits assumed)
Excerpt: Experimental Example 2: Detection of Agonist Activities of Compounds Against THRα and THRβ Based on Reporter Gene Activity Assay Method
1.1 Construction and Preparation of Plasmids pGAL4-THR-LBD and pG5-Luc
The pGAL4-THRα-LBD and pGAL4-THRβ-LBD plasmids used in the reporter gene assay system were constructed by a conventional molecular cloning method comprising the following main steps: the cDNA sequences of THRα (NM_003250) and THRβ(NM_000461) corresponding to the amino acid sequences of THRα (163-407AA) and THRβ(217-461AA) were inserted into the BamHI and NotI enzyme digestion sites of the pGAL4 vector by the PCR technique respectively to obtain the pGAL4-THRα-LBD and pGAL4-THRβ-LBD plasmids; the pG5-Luc (#E249A) and pRL-TK (#E2241) plasmids were purchased from Promega; the plasmids were transfected into the E. coli DH5a by the CaCl2 method, and after further culture and amplification, the plasmids were purified by Plasmid Extraction Kits (TIANGEN, #D107) to obtain the corresponding plasmid DNAs.
1.2 Co-Transfection of Plasmids into HEK293T Cells and Treatment with Compounds
The HEK293T cells were inoculated into a 96-well plate at a density of 1×10^4/well the day before plasmid transfection. Cell transfection was conducted according to the instructions of the transfection reagent FuGENE® HD (Promega, #E2311). The main steps were as follows: taking one well as an example here, the plasmids pGAL4-THRα-LBD or pGAL4-THRβ-LBD, pG5-Luc, and pRL-TK were added in the proportions of 20 ng, 50 ng, and 5 ng to 10 μL of Opti-MEM™ I medium (Gibco, #11058021) and mixed well; subsequently, 0.25 μL of FuGENE® HD was added, mixed well, and then left at room temperature for 5 min; afterwards, […] was added to the cell wells containing 100 μL of culture medium. After cell co-transfection for 6 h, the compound was diluted in a 3-fold gradient with dimethyl sulfoxide at the highest concentration of 1 μM. The compound was added to the cell culture medium at a total of 10 concentrations for treatment for 24 h. There were a total of two duplicate wells for each concentration. Triiodothyronine (T3) was used as the positive control.
1.3 Dual-Glo Luciferase Assay
After the cells were treated with the compound for 24 h, the cells were assayed according to the instructions of Dual-Glo® Luciferase Assay System (Promega, #E2940). The main steps were as follows: 50 μL of culture medium was aspirated from each well and discarded, and then 50 μL of Dual-Glo® Luciferase reagent was added and oscillated at room temperature for 10 min; 80 μL of lysis reaction solution was measured into a white opaque optiPlate-96-well plate, and the luminescence signal value (Firefly-Luc) of the Firefly luciferase was detected using an MD i3x multi-mode microplate reader; 40 μL of Dual-Glo® Stop & Glo® reagent was then added, and oscillated at room temperature for 10 min; the luminescence signal value (Renilla-Luc) of the Renilla luciferase was then detected using an MD i3x multi-mode microplate reader. The Firefly-Luc/Renilla-Luc ratio was used as the activation activity of the compound against THR, and was normalized against the ratio in the vehicle DMSO group; the dose-response curve was fitted with four parameters using the GraphPad Prism6.0 software, and the EC50 value was calculated.

| SMILES | EC50 [1] [nM] | Selectivity (THRα/THRβ) [1] | EC50 [2] [nM] | Selectivity (THRα/THRβ) (THRβ (pGAL4-THRβ-LBD)) |
| --- | --- | --- | --- | --- |
| N#Cc1nn(-c2cc(Cl)c(Cn3ccc(=O)c4ccccc43)c(Cl)c2)c(=O)[nH]c1=O [Compound 31] | 100 to 1000 | †† (10 > THRα/β > 1) | 1000 to 10000 |  |
| C#Cc1nn(-c2cc(Cl)c(Cn3ccc(=O)c4ccccc43)c(Cl)c2)c(=O)[nH]c1=O [Compound 40] | 50 to 100 | †† (10 > THRα/β > 1) | 100 to 1000 |  |
| Cn1nc(-c2cc(Cl)c(Cn3ccc(=O)c4ccccc43)c(Cl)c2)c(=O)[nH]c1=O [Compound 51] |  |  |  | † (5 ≥ THRα/β) |
| O=c1[nH]c(COc2cc(Cl)c(Cn3ccc(=O)c4ccccc43)c(Cl)c2)no1 [Compound 58] | 100 to 1000 | †† (10 > THRα/β > 1) | 100 to 1000 |  |
| O=C(O)CNc1cc(Cl)c(Cn2ccc(=O)c3ccccc32)c(Cl)c1 [Compound 60] | 100 to 1000 | †† (10 > THRα/β > 1) | 100 to 1000 |  |
| O=C(O)CC(=O)Nc1cc(Cl)c(Cn2ccc(=O)c3ccccc32)c(Cl)c1 [Compound 61] | 100 to 1000 | †† (10 > THRα/β > 1) | 1000 to 10000 |  |
| O=c1[nH]c(CNc2cc(Cl)c(Cn3ccc(=O)c4ccccc43)c(Cl)c2)no1 [Compound 64] | 50 to 100 | †† (10 > THRα/β > 1) | 100 to 1000 |  |
| O=C(Nc1cc(Cl)c(Cn2ccc(=O)c3ccccc32)c(Cl)c1)c1noc(=O)[nH]1 [Compound 66] | 100 to 1000 | ††† (THRα/β ≥ 10) | 1000 to 10000 |  |

Further lines, results first:

| EC50 [1] [nM] | Selectivity (THRα/THRβ) [1] | EC50 [2] [nM] | Selectivity (THRα/THRβ) (THRβ (pGAL4-THRβ-LBD)) | SMILES |
| --- | --- | --- | --- | --- |
| 100 to 1000 | †† (10 > THRα/β > 1) | 100 to 1000 |  | O=c1ccn(Cc2c(Cl)cc(OCc3nnn[nH]3)cc2Cl)c2ccccc12 [Compound 59] |
| 50 to 100 | †† (10 > THRα/β > 1) | 100 to 1000 |  | O=C(O)C(=O)Nc1cc(Cl)c(Cn2ccc(=O)c3ccccc32)c(Cl)c1 [Compound 62] |
| 100 to 1000 | †† (10 > THRα/β > 1) | 1000 to 10000 |  | O=c1[nH]nc(CNc2cc(Cl)c(Cn3ccc(=O)c4ccccc43)c(Cl)c2)o1 [Compound 63] |
| < 50 | ††† (THRα/β ≥ 10) | 100 to 1000 |  | O=c1ccn(Cc2c(Cl)cc(NCc3nnn[nH]3)cc2Cl)c2ccccc12 [Compound 65] |
